Source: the supplement of paper PMC10307832

Columns and labels:
Test in all cases: relative viability (nuclei count vs DMSO), 5 days (fraction); higher = more cells survive
Bortezomib + Olaparib = compound: CC(C)C[C@H](NC(=O)[C@H](Cc1ccccc1)NC(=O)c1cnccn1)B(O)O [Bortezomib] + O=C(c1cc(Cc2n[nH]c(=O)c3ccccc23)ccc1F)N1CCN(C(=O)C2CC2)CC1 [Olaparib] (partner 8 µM)
Method in brief: (§1)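 Values are medians from duplicate plates. Each reflects relative viability, defined as the nuclei count of treated wells over that of vehicle wells. Lung cancer cell lines in 1536-well plates were pin-tool dosed one day after seeding with one drug alone or with a fixed anchor-drug dose plus five library-drug doses (not always all listed) in √10 steps, then fixed, stained and imaged at 4× after 5 days.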

Bortezomib + Alpelisib = compound: CC(C)C[C@H](NC(=O)[C@H](Cc1ccccc1)NC(=O)c1cnccn1)B(O)O [Bortezomib] + Cc1nc(NC(=O)N2CCC[C@H]2C(N)=O)sc1-c1ccnc(C(C)(C)C(F)(F)F)c1 [Alpelisib] (partner 2 µM)
Method in brief: as §1

Bortezomib + Tozasertib = compound: CC(C)C[C@H](NC(=O)[C@H](Cc1ccccc1)NC(=O)c1cnccn1)B(O)O [Bortezomib] + Cc1cc(Nc2cc(N3CCN(C)CC3)nc(Sc3ccc(NC(=O)C4CC4)cc3)n2)n[nH]1 [Tozasertib] (partner 0.1 µM)
Method in brief: as §1

Obatoclax + Luminespib = compound: COC1=CC(c2cc3ccccc3[nH]2)=N/C1=C\c1[nH]c(C)cc1C [Obatoclax] + CCNC(=O)c1noc(-c2cc(C(C)C)c(O)cc2O)c1-c1ccc(CN2CCOCC2)cc1 [Luminespib] (partner 0.01 µM)
Method in brief: as §1

Cell Line	relative viability (Bortezomib + Olaparib; first compound 0.0002 µM)	relative viability (Bortezomib + Olaparib; first compound 0.000632 µM)	relative viability (Bortezomib + Olaparib; first compound 0.002 µM)	relative viability (Bortezomib + Olaparib; first compound 0.006325 µM)	relative viability (Bortezomib + Olaparib; first compound 0.02 µM)	relative viability (Bortezomib + Alpelisib; first compound 0.0002 µM)	relative viability (Bortezomib + Alpelisib; first compound 0.000632 µM)	relative viability (Bortezomib + Alpelisib; first compound 0.002 µM)	relative viability (Bortezomib + Alpelisib; first compound 0.006325 µM)	relative viability (Bortezomib + Alpelisib; first compound 0.02 µM)	relative viability (Bortezomib + Tozasertib; first compound 0.0002 µM)	relative viability (Bortezomib + Tozasertib; first compound 0.000632 µM)	relative viability (Bortezomib + Tozasertib; first compound 0.002 µM)	relative viability (Bortezomib + Tozasertib; first compound 0.006325 µM)	relative viability (Bortezomib + Tozasertib; first compound 0.02 µM)	relative viability (Obatoclax + Luminespib; first compound 0.01 µM)	relative viability (Obatoclax + Luminespib; first compound 0.03162 µM)	relative viability (Obatoclax + Luminespib; first compound 0.1 µM)	relative viability (Obatoclax + Luminespib; first compound 0.3162 µM)	relative viability (Obatoclax + Luminespib; first compound 1 µM)
NCI-H2126	0.851	0.903	0.9	0.794	0.184	0.765	0.758	0.741	0.737	0.206	0.815	0.921	0.763	0.488	0.214	0.857	0.876	0.875	0.806	0.679
SK-LU-1	0.477	0.442	0.462	0.198	0.149	1.09	0.963	0.551	0.154	0.149	0.284	0.362	0.282	0.102	0.1	0.195	0.205	0.173	0.173	0.11
LCLC-97TM1	0.343	0.431	0.264	0.0586	0.0773	0.245	0.242	0.113	0.11	0.114	0.289	0.204	0.25	0.131	0.14	0.734	0.563	0.788	0.761	0.532
NCI-H838	0.739	0.789	0.792	0.124	0.0906	0.977	0.983	1.13	0.475	0.134	0.251	0.298	0.327	0.109	0.123	0.226	0.222	0.3	0.243	0.188
NCI-H520	0.333	0.334	0.218	0.117	0.116	0.981	0.935	0.91	0.155	0.135	0.482	0.401	0.262	0.24	0.232	0.231	0.215	0.257	0.246	0.205
NCI-H2347	0.413	0.572	0.338	0.245	0.249	0.924	0.968	0.706	0.248	0.278	0.522	0.676	0.471	0.195	0.166	0.595	0.374	–	0.269	0.23
NCI-H441	0.446	0.601	0.165	0.11	0.102	0.613	0.58	0.19	0.132	0.111	0.66	0.799	0.383	0.186	0.191	0.416	0.316	0.278	0.223	0.236
NCI-H358	0.773	0.541	0.46	0.0684	0.076	0.782	0.873	0.613	0.161	0.162	0.101	0.114	0.103	0.0691	0.0756	0.395	0.245	0.449	0.351	0.161
NCI-H2405	0.859	0.834	0.334	0.199	0.161	0.812	–	0.336	0.134	0.16	0.715	0.804	0.629	0.23	0.153	0.606	0.67	–	0.782	0.735
HCC-15	0.763	0.734	0.662	0.108	0.0913	0.845	0.911	0.833	0.307	0.0846	0.372	0.45	0.405	0.0716	0.0808	0.302	0.148	0.267	0.361	0.274
